US20120064008A1, “COMPOSITIONS FOR THE TREATMENT OF METASTATIC CANCER AND METHODS OF USE THEREOF” (priority 2009, published 2012)
“Also recorded” adds a separate entry of the source. Read-outs that look alike come from different tables or passages of the source.

Experiments:
[1] = test system: DU-145TR cells; test: Gene expression profiling, DU-145 and DU-145TR; assay type: cell-based, human; conditions: DU-145TR vs DU-145, 2-fold cut off
Description: In order to dissect the mechanisms underlying the anti-tumor effects of benzimidazoles in these cells, gene expression profiling was done comparing albendazole treated DU-145 and DU-145TR cells.

[2] = test system: AT6.1 Dunning rat prostate carcinoma; test: Survival in intravenous AT6.1 Dunning rat prostate carcinoma lung metastasis model; assay type: in vivo, nu/nu mice; conditions: for average survival time: FIG. 5 (carrier only 20.4 days); for survival: 100 mg/kg, FIG. 6 (control 24.25 days)
Experimental: Many anti-tumor drugs are tested only for their ability to prevent primary tumor growth or to prevent the dissemination of metastatic cells. To accomplish this, the drug is usually administered shortly after the primary tumor is established. […] The benzimidazoles described herein were evaluated in an experimental metastases model in the lungs of nude mice following tail-vein injection of Dunning rat AT6.1 prostate carcinoma. […] In order to achieve greater bioavailability, we first solubilized benzimidazoles in DNTC formulation and then diluted with saline prior to injection.
Inbred male nu/nu mice age 6-8 weeks were obtained from Massachusetts General Hospital (Boston, Mass.). The mice were virus antibody free, age and weight matched for experimental use and fed with a balanced rodent diet ad libitum. AT6.1 Dunning rat prostate cells were maintained as described above. 1×10^4 log-phase cells were injected via tail vein in 0.1 mL Hanks solution. Vehicle or drug treatment was started on day 5 post inoculation and given three times a week (Monday, Wednesday and Friday) via intraperitoneal injection in 0.5 mL volume. Benzimidazole drugs were prepared in the combination carrier [DMSO (12.5%), NMP (37.5%), TWEEN®-80 (25%) and CrEL (25%)] and diluted in saline. Vehicle control was prepared by diluting the combination carrier with saline.
During the course of treatment, the mice were monitored for toxicity by measuring body weight. […] Animals were euthanized with CO2 and tissues were collected for further analysis. The animals and experiments used in these studies were approved by the institutional animal care committee according to Children's Hospital Boston ARCH guidelines.
To distinguish differences in survival between these groups, the percent increase in life span (ILS %), defined as the percent increase in the mean time to death of drug-treated animals over the corresponding time to death for vehicle-treated mice, was calculated.

[3] = test system: PC3M human prostate cancer cells; test: Cyquant cell viability assay, PC3M; assay type: cell-based; conditions: for EC50: Homo sapiens, PC-3M, read-out: ED50 PC3M DMSO
Experimental: PC3M and PC3MLN4 cells were treated with vehicle, fenbendazole in DMSO, and fenbendazole in DMSO/NMP/TWEEN®-80/CrEL in varying doses for 72 hours. Cell viability assays using Cyquant reagent (Invitrogen, C7026) were performed as described in the literature. […] cells were seeded in 96 well plates overnight, before treated with either vehicle or benzimidazole solubilized in DMSO alone or in DMSO (12.5%)/NMP ([…])/TWEEN®-80 (25%)/Cr-EL (25%) for 72 hours. Cells were harvested by removing the media, washing once with phosphate buffered saline (PBS) and freezing at −80° C. for overnight. After thawing to room temperature, Cyquant reagent were prepared and added to the wells and the fluorescence intensity were measured with a spectrometer at 485 nm. Percent control was calculated by dividing the reading from drug-treated cells with the reading from vehicle-treated cells.
ED50 values were calculated from dose-effect analysis performed with Compusyn using data from the Cyquant cell viability assays.
ED50 values were calculated from dose-effect analysis performed with Compusyn using data from the Cyquant cell viability assays. All benzimidazoles drugs were solubilized in the combination carrier.

[4] = test system: PC3MLN4 cells; test: Annexin V/7-AAD apoptosis by flow cytometry, PC3MLN4; conditions: for apoptotic cells in PC3MLN4: 1 μM, combination carrier
Experimental: Annexin V/7-amino-actinomycin D labeling was done according to the manufacturer's instructions (BD Pharmingen, 559763) and samples were analyzed by flow cytometry. Briefly, the cells were treated for 72 hours with either vehicle or 1 μM benzimidazole drugs, solubilized in the combination carrier. Cells were trypsinized and washed with PBS before resuspending in assay binding buffer. Annexin V and 7-amino-actinomycin labeling was performed at room temperature for 15 minutes before analysis by flow cytometry (BD FACScan). Cells positively stained for annexin V in the lower right quadrant and upper right quadrant indicate early and late apoptosis, respectively.
All benzimidazole drugs were solubilized in the combination carrier. After 72 hours, the cells were analyzed by annexin V/7-AAD staining. Cells positively stained for annexin V in the lower right quadrant and upper right quadrant indicate early and late apoptosis, respectively.

[5] = test system: PC-3MLN4 cells; test: Normalized mitotic index (histone H3 phospho-Serine-28), PC-3MLN4; assay type: cell-based; conditions: Homo sapiens, read-out: Normalized mitotic index PC-3MLN4, at 1 μM; normalized against vehicle-treated cells
Description: The mitotic index for each agent was normalized against those obtained from vehicle-treated cells, and compared with the activity of paclitaxel, a known inducer of mitotic arrest.

[6] = test system: DU145 human prostate cancer cells; test: Cyquant cell viability assay, DU145; assay type: cell-based; conditions: read-out: ED50 DU145
Experimental: The cytotoxic effects of paclitaxel, fenbendazole, and albendazole were compared in paclitaxel-resistant PC3-TR and DU145-TR prostate cancer cells with their paclitaxel-sensitive counterparts, PC3 and DU145 cells. Cells were treated for 72 hours with vehicle, paclitaxel, fenbendazole or albendazole in various doses. Cell viability was measured using Cyquant assay, and percent control was calculated by dividing the fluorescent reading from drug-treated cells with those from vehicle-treated cells, indicating percentage of cell survival.

[7] = test system: PC3-TR cells; test: % apoptotic cells, PC3-TR; assay type: cell-based, human; conditions: 1 μM
[8] = test system: AT6.1 lung metastases; test: Ki-67 and caspase-3 staining of lung tumor sections; assay type: in vivo, mice; conditions: 50 mg/kg, combination carrier; FIG. 10
Experimental: To investigate whether benzimidazoles treatment affects cell proliferation and apoptosis in vivo, immunohistochemical analysis of the cell proliferation marker, Ki-67 and of the apoptotic marker, activated caspase-3 was performed on mouse lung sections from each group.
Tumor cells in the lungs of rats treated with saline and 50 mg/kg fenbendazole (formulation in the combination carrier) were analyzed by Ki-67 and caspase-3 antibody staining. Tissues were collected and fixed in formalin before processed for paraffin embedding. Tissue sections were then processed for Ki-67 and caspase-3 antibody staining, using the protocol established at Dana Farber Cancer Institute/Harvard Cancer Center Research Pathology Core. At least five random 200× magnification images were photographed from each animal. Distinct and strong nuclear Ki67 staining of tumor cells were counted using Image J software (NIH, Bethesda, […].).

[9] = 100 mg/kg i.p. three times a week, over vehicle-treated mice

SMILES	expression of ER stress signaling genes (ATF-2, ATF-3, HERPUD1, CHOP, ANKRD1, GADD45alpha) [1]	average survival time ([2]; 50 mg/kg i.p. three times a week from day 5)	average survival time ([2]; 100 mg/kg i.p. three times a week from day 5)	percent increase in life span (ILS %) [2, 9]	survival [2]	percent increase in life span (ILS %) ([2]; 250 mg/kg three times a week)	EC50 ([3]; 72 h)	apoptotic cells in PC3MLN4 ([4]; 72 hours)	cytotoxic activity via apoptosis in highly metastatic prostate cancer cells ([4]; 72 hours, annexin V)	fold induction at 1 µM [5]	EC50 ([6]; DU-145, 72 h)	% Apoptotic cells (72 hours) PC3-TR [7]	tumor cell proliferation (Ki67 staining) compared to control [8]	EC50 ([3]; solubilized in DMSO alone, 72 hours)	reduction in ED50, DNTC compared to DMSO, PC-3M ([3]; solubilized in DNTC vs DMSO)	cytotoxic activity via apoptosis in highly metastatic prostate cancer cells [4]	EC50 ([6]; DU-145, 72 hours)
CCCSc1ccc2nc(NC(=O)OC)[nH]c2c1 [Albendazole, albendazole]	differentially expressed	24.4 days	32 days	59.7%	38.75 days	64%	4.84 µM	29.7%	induction of apoptosis	1.8 to 2	2.41 µM	25.8%					
COC(=O)Nc1nc2ccc(Sc3ccccc3)cc2[nH]1 [Fenbendazole, fenbendazole]				45.3%	35.25 days			31.4%				34.4%	less proliferation of tumor cells; also recorded: marked reduction in tumor cell proliferation	5.4 µM	~2 fold	induction of apoptosis	10.7 µM
